ChEMBL document CHEMBL1201862, “PubChem BioAssay data set” (2004)
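Protocol summary: plate cells (96-well), add compound at 5 concentrations, incubate 48 h, interpolate endpoints linearly. GI50: concentration for 50% inhibition of growth.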 Activity calls are given as the source filed them. No stated cut-off is given here; in the data, active = GI50 up to about 1.1 µM and inactive = higher.

Legend:
Test in all cases: NCI anticancer screen, dose series, 48 h
SNB-75 = test system: SNB-75
MOLT-4 = test system: MOLT-4
NCI-H460 = test system: NCI-H460
SK-MEL-5 = test system: SK-MEL-5
NCI-H23 = test system: NCI-H23
SF-539 = test system: SF-539
A498 = test system: A498
M14 = test system: M14
HCT-116 = test system: HCT-116
OVCAR-5 = test system: OVCAR-5
A549 = test system: A549
UACC-62 = test system: UACC-62
DMS-273 = test system: DMS-273
786-0 = test system: 786-0
SF-295 = test system: SF-295
LOX IMVI = test system: LOX IMVI
SK-MEL-28 = test system: SK-MEL-28
TK-10 = test system: TK-10
SR = test system: SR
PC-3 = test system: PC-3

| SMILES | GI50 (SNB-75) | GI50 (MOLT-4) | GI50 (NCI-H460) | GI50 (SK-MEL-5) | GI50 (NCI-H23) | GI50 (SF-539) | GI50 (A498) | GI50 (M14) | GI50 (HCT-116) | GI50 (OVCAR-5) | GI50 (A549) | GI50 (UACC-62) | GI50 (DMS-273) | GI50 (786-0) | GI50 (SF-295) | GI50 (LOX IMVI) | GI50 (SK-MEL-28) | GI50 (TK-10) | GI50 (SR) | GI50 (PC-3) |
| --- | --- | --- | --- | --- | --- | --- | --- | --- | --- | --- | --- | --- | --- | --- | --- | --- | --- | --- | --- | --- |
| CCCCCCCCCCCCCCCCCCOCC(COP(=O)([O-])OCC[N+](C)(C)C)OC (configuration not stated) [EDELFOSINE] | 8.75 µM (inactive) | 11.5 µM (inactive) | 7.05 µM (inactive) | 41.8 µM (inactive) | 41.6 µM (inactive) | > 58.5 µM (inactive) | 19.8 µM (inactive) | 32.9 µM (inactive) | 14.7 µM (inactive) | 15.9 µM (inactive) | 21.4 µM (inactive) | 20.5 µM (inactive) | 3.03 µM (inactive) | 22.3 µM (inactive) | 9.66 µM (inactive) | 15.4 µM (inactive) | 41.2 µM (inactive) | 19 µM (inactive) | 7.87 µM (inactive) | 7.19 µM (inactive) |
| O=C(Nc1ccn(CCOC(=O)c2ccccc2)c(=O)n1)c1ccccc1 | > 100 µM (inactive) |  | > 100 µM (inactive) | > 100 µM (inactive) |  | > 100 µM (inactive) | > 100 µM (inactive) | > 100 µM (inactive) | > 100 µM (inactive) | > 100 µM (inactive) | > 100 µM (inactive) | > 100 µM (inactive) | > 100 µM (inactive) | > 100 µM (inactive) | > 100 µM (inactive) | > 100 µM (inactive) | > 100 µM (inactive) | > 100 µM (inactive) | > 100 µM (inactive) |  |
| CC1OC(CC(=O)O)Cc2c(O)c3c(c(O)c21)C(=O)C=C(C1=CC(=O)c2c(O)c4c(c(O)c2C1=O)CC(CC(=O)O)OC4C)C3=O (configuration not stated) | 59.6 µM (inactive) | 2.69 µM (inactive) | 60.8 µM (inactive) | 16.4 µM (inactive) | 17.6 µM (inactive) | 19.1 µM (inactive) | 18.9 µM (inactive) | 15 µM (inactive) | 10.9 µM (inactive) | 43.8 µM (inactive) | 45.1 µM (inactive) | 12.8 µM (inactive) | 20.4 µM (inactive) | 21.4 µM (inactive) | 88.7 µM (inactive) | 16.5 µM (inactive) | 14.7 µM (inactive) | 57.9 µM (inactive) | 3.69 µM (inactive) |  |
| CN1CCOC(c2ccccc2)O1 (configuration not stated) | > 100 µM (inactive) | > 100 µM (inactive) | > 100 µM (inactive) | > 100 µM (inactive) | > 100 µM (inactive) | > 100 µM (inactive) | > 100 µM (inactive) | > 100 µM (inactive) | > 100 µM (inactive) | > 100 µM (inactive) | > 100 µM (inactive) | > 100 µM (inactive) | > 100 µM (inactive) | > 100 µM (inactive) | > 100 µM (inactive) | > 100 µM (inactive) | > 100 µM (inactive) | > 100 µM (inactive) | > 100 µM (inactive) |  |
| COc1ccc2c(c1)C=C([N+](=O)[O-])C(C1OC(C)(C)OC1C1COC(C)(C)O1)O2 (configuration not stated) | 14.5 µM (inactive) | 1.79 µM (inactive) | 3.64 µM (inactive) | 2.82 µM (inactive) | 11.6 µM (inactive) | 5.66 µM (inactive) | 18 µM (inactive) | 2.07 µM (inactive) | 1.79 µM (inactive) | 8.04 µM (inactive) | 18 µM (inactive) | 1.82 µM (inactive) | 2.9 µM (inactive) | 12.8 µM (inactive) | 7.89 µM (inactive) | 1.49 µM (inactive) | 1.74 µM (inactive) | 18.4 µM (inactive) | 1.55 µM (inactive) |  |
| Nc1nc(N)c(-c2ccccc2)c(C(=O)Nc2ccc(Cl)c(Cl)c2)n1 | > 100 µM (inactive) | > 100 µM (inactive) | > 100 µM (inactive) | > 100 µM (inactive) | > 100 µM (inactive) | > 100 µM (inactive) | > 100 µM (inactive) | > 100 µM (inactive) | > 100 µM (inactive) | > 100 µM (inactive) | > 100 µM (inactive) | > 100 µM (inactive) | > 100 µM (inactive) | > 100 µM (inactive) | > 100 µM (inactive) | > 100 µM (inactive) | > 100 µM (inactive) | > 100 µM (inactive) |  |  |
| O=C(CCC(=O)Nc1cccc(Cl)c1)CC(=O)c1ccc(Cl)cc1 | > 100 µM (inactive) | > 100 µM (inactive) | > 100 µM (inactive) |  | > 100 µM (inactive) | > 100 µM (inactive) |  | > 100 µM (inactive) | > 100 µM (inactive) | > 100 µM (inactive) | > 100 µM (inactive) | > 100 µM (inactive) | > 100 µM (inactive) | > 100 µM (inactive) | > 100 µM (inactive) | > 100 µM (inactive) | > 100 µM (inactive) | > 100 µM (inactive) | > 100 µM (inactive) |  |
| Cc1cccc(/C=N/C23CC4CC(CC(C4)C2)C3)c1 | > 100 µM (inactive) | > 100 µM (inactive) | > 100 µM (inactive) | > 100 µM (inactive) | > 100 µM (inactive) | > 100 µM (inactive) | > 100 µM (inactive) | > 100 µM (inactive) | > 100 µM (inactive) | > 100 µM (inactive) | > 100 µM (inactive) | > 100 µM (inactive) | > 100 µM (inactive) | > 100 µM (inactive) | > 100 µM (inactive) | > 100 µM (inactive) | > 100 µM (inactive) | > 100 µM (inactive) |  |  |
| O=c1ccc2ccccc2c2ccccc12 | 2.94 µM (inactive) | 3.78 µM (inactive) | 3.98 µM (inactive) | 2.9 µM (inactive) | 2.83 µM (inactive) | 1.97 µM (inactive) | 22.7 µM (inactive) | 2.42 µM (inactive) | 3.7 µM (inactive) | 2.82 µM (inactive) | 13.8 µM (inactive) | 2.27 µM (inactive) | 3.33 µM (inactive) | 2.77 µM (inactive) | 3.61 µM (inactive) | 1.91 µM (inactive) | 5.46 µM (inactive) | 14.5 µM (inactive) | 1.52 µM (inactive) |  |
| Cc1ccc(NC(=O)SCCC(=O)O)cc1 | 8.95 µM (inactive) | > 100 µM (inactive) | > 100 µM (inactive) |  | > 100 µM (inactive) | > 100 µM (inactive) | > 100 µM (inactive) | > 100 µM (inactive) | > 100 µM (inactive) | > 100 µM (inactive) | > 100 µM (inactive) | 45.7 µM (inactive) | > 100 µM (inactive) | > 100 µM (inactive) | > 100 µM (inactive) | > 100 µM (inactive) | > 100 µM (inactive) | > 100 µM (inactive) | > 100 µM (inactive) |  |
| COc1ccccc1NS(=O)(=O)c1cc(C(C)(C)C)ccc1OCCOc1ccc(C(C)(C)C)cc1S(=O)(=O)Nc1ccccc1OC | > 100 µM (inactive) | > 100 µM (inactive) | > 100 µM (inactive) | > 100 µM (inactive) | > 100 µM (inactive) | > 100 µM (inactive) | > 100 µM (inactive) | > 100 µM (inactive) | > 100 µM (inactive) | > 100 µM (inactive) | > 100 µM (inactive) | > 100 µM (inactive) | > 100 µM (inactive) | > 100 µM (inactive) | > 100 µM (inactive) | > 100 µM (inactive) | > 100 µM (inactive) | > 100 µM (inactive) |  |  |
| COc1ccc(C2CC(C)=Nc3c(O)nc(S)nc3N2)cc1 (configuration not stated) | 17.6 µM (inactive) | 23.1 µM (inactive) | 16.6 µM (inactive) | 16.7 µM (inactive) | 30.5 µM (inactive) | 24.5 µM (inactive) | 19.2 µM (inactive) | 19.6 µM (inactive) | 16.5 µM (inactive) | 23.4 µM (inactive) | 16.9 µM (inactive) | 17.4 µM (inactive) | 16.7 µM (inactive) | 17.1 µM (inactive) | 22 µM (inactive) | 17.4 µM (inactive) | 27 µM (inactive) | 20.8 µM (inactive) | 25.6 µM (inactive) |  |
| O=c1[nH]c(=O)n(C2CC(O)C(CO)O2)cc1C#Cc1ccc(C(F)(F)F)cc1 (configuration not stated) | 61.5 µM (inactive) | > 100 µM (inactive) | > 100 µM (inactive) | > 100 µM (inactive) | > 100 µM (inactive) | > 100 µM (inactive) |  | > 100 µM (inactive) | > 100 µM (inactive) | > 100 µM (inactive) | > 100 µM (inactive) | > 100 µM (inactive) | > 100 µM (inactive) | > 100 µM (inactive) | > 100 µM (inactive) | > 100 µM (inactive) | > 100 µM (inactive) | > 100 µM (inactive) | > 100 µM (inactive) |  |
| Nc1ccc(Cn2ccc3c4c(N)nc(N)nc4ccc32)cc1 | 0.804 µM (active) | < 0.0122 µM (active) | < 0.01 µM (active) | < 0.01 µM (active) | < 0.01 µM (active) | < 0.0184 µM (active) |  | < 0.0114 µM (active) | < 0.01 µM (active) | 0.0224 µM (active) | < 0.01 µM (active) | < 0.01 µM (active) | < 0.01 µM (active) | < 0.0252 µM (active) | < 0.01 µM (active) | < 0.01 µM (active) | 0.128 µM (active) | 1.58 µM (inactive) | 0.0393 µM (active) | 0.0127 µM (active) |
| CN(C)CCN(C)CC1COC(C)(C)O1 (configuration not stated) | > 100 µM (inactive) | > 100 µM (inactive) | > 100 µM (inactive) | > 100 µM (inactive) | > 100 µM (inactive) | > 100 µM (inactive) | > 100 µM (inactive) | > 100 µM (inactive) | > 100 µM (inactive) | > 100 µM (inactive) | > 100 µM (inactive) | > 100 µM (inactive) | > 100 µM (inactive) | > 100 µM (inactive) | > 100 µM (inactive) | > 100 µM (inactive) | > 100 µM (inactive) | > 100 µM (inactive) | > 100 µM (inactive) |  |
